Entries after “also recorded” stand apart in the source; their conditions may differ.
What was measured:
[1] = Cytotoxicity, CellTiter-Glo cell viability; format: cell-based; details: human, HEK 293 cells (printed as HEK 293 neuroblastoma cell lines), 72 h treatment, read-out: EC50 cytotoxicity (cell viability, ATP)
Experimental: FIG. 19.: In-vitro assessment of SCA-744 (A) and SCA-754 (B) cytotoxicity. Experiments were performed using HEK 293 […] cell lines. The effect of SCA-744 and SCA-754 on cell viability was assessed using a standard ATP, CellTiter-Glo® Luminescent Cell Viability Assay following 72 hours treatment.
In vitro assessment of cytotoxicity of SCA-744 and SCA-754 in mammalian cells. 72 h following SCA-744 and SCA-754-treatment, cell viability was assessed using a standard ATP method, CellTiter-Glo® Luminescent Cell Viability Assay.

[2] = tested on: SH-SY5Y neuroblastoma cells; assay: MPP+ induced mitochondria fragmentation in SH-SY5Y cells (MitoTracker confocal imaging); format: cell-based, human; details: MPP+ 0.5 mM 48 hours, SCA-744 500 μM
Experimental: To test whether SCA-744 would be able to rescue cells from oxidative damage induced by mitochondrial dysfunction, SH-SY5Y neuroblastoma cells were treated with 1-methyl-4-phenylpyridinium (MPP+) (0.5 mM, 48 hours) to induce mitochondria fragmentation. […] To visualize mitochondria, cells were incubated with MitoTracker Red CMXRos, a mildly thiol-reactive chloromethyl moiety for mitochondria labelling (MitoTracker Red CMXRos #9082 Cell Signaling), fixed and mounted. Mitochondrial morphology was imaged with a laser scanning confocal microscope LSM710 Zeiss.

LDL-R [3] = assay: LDL-R immunofluorescence microscopy in HeLa cells; format: cell-based, human; details: 50 and 500 μM, 48 hours
Experimental: In another set of experiments, HeLa cells were treated the same way (50 and 500 μM of SCA-744 for 48 hours). Cells were fixed with 4% paraformaldehyde solution for 10 min at RT and permeabilized with 0.1% Triton X-100 for 15 min at RT and analysed by immunofluorescence microscopy using the same anti-human LDLR antibody employed for the immunoblotting. This detection method was more sensitive, and indicated the presence of LDL-R even in control cells.

LDL-R [4] = assay: LDL-R immunoblot in HeLa cells; format: cell-based, human; details: 50 or 500 μM, 24 or 48 hours, no signal in control
Experimental: As illustrated in the Table 1 (FIG. 10), the SCA-744 affects the expression of several genes involved in lipid metabolism, such as the Low-density Lipoprotein Receptor, a major determinant of cholesterol levels in plasma. LDLR. […] To assess directly the effect of SCA-744 on the level of LDL-R expression, HeLa cells were treated with SCA-744 at 50 or 500 μM concentrations for 24 or 48 hours. Cells were harvested, cell lysate prepared and then analysed by immunoblotting using an anti-human LDL-R antibody (C7: sc-18823, Santa Cruz Biotechnologies).

C57BL/6J mice [5] = assay: LPS-induced acute lung inflammation model: lung histopathology; format: in vivo; details: SCA-744 60 mg/kg i.p.
Experimental: (§1) Acute lung inflammation was induced by intratracheal administration of 100 μg LPS (Escherichia coli O111:B4; Sigma Aldrich, St. Louis, MO, USA) dissolved in 60 μl sterile phosphate buffered saline (PBS) under ketamine (120 mg/kg ip.; Calypsol, Gedeon Richter Plc., Budapest, Hungary) and xylazine (6 mg/kg ip.; Sedaxylan, Eurovet Animal Health B.V., Bladel, Netherlands) anaesthesia. 24 h after administration, respiratory function parameters were assessed, and lung samples were harvested for histopathological evaluation.
(§2) SCA-744 (60 mg/kg) and its vehicle were injected intraperitoneally (i.p.), 24 h, 12 h, 20 min before and 12 h after intratracheal administration of LPS. […] 24 h and 20 min before LPS treatment. Respiratory function measurement was performed 24 h after LPS administration
Excised lung tissue samples were formalin-fixed (6%) and embedded in paraffin, 5 μm sections cut and stained with haematoxylin-eosin for histological analysis. Assessment of airway inflammation was performed in a blind manner in order to evaluate perivascular/peribronchial edema, neutrophil, macrophage and lymphocyte inflammatory cell infiltration as well as goblet cell metaplasia on a semiquantitative scale ranging from 0 to 3 in 2 fields of vision from three depths of lung tissue from each animal.

C57BL/6J mice [6] = assay: LPS-induced acute lung inflammation model: respiratory function (plethysmography); format: in vivo; details: 100 μg LPS intratracheal, measured 24 h after; SCA-744 60 mg/kg i.p. 4 doses; dexamethasone 5 mg/kg ip. 2 doses
Experimental: as §1, §2
Buxco FinePoint Non-invasive Airway Mechanics (NAM) double chamber plethysmography (DSI Harvard Bioscience Inc.) was used to monitor ventilatory and bronchoconstriction parameters in awake, restrained animals without the use of anesthesia. The plethysmograph measures the nasal and thoracic flows independently. […] After 10 minutes of acclimatization period baseline pulmonary functions were assessed, such as the frequency, tidal volume, minute ventilation, expiratory/inspiratory time, peak expiratory/inspiratory flow, and specific airway resistance, a measure of bronchoconstriction.

[7] = tested on: THP-1 human monocytic cell line; assay: LPS-stimulated THP-1 macrophage cytokine production (LEGENDplex); format: cell-based
Experimental: A specific anti-inflammatory effect or activity of a compound is proven, if the compound can decrease the production of one of IL-1B, IL-6 and TNFα in human THP1 macrophages following LPS stimulation, as determined by a standard assay: THP-1 human monocytic cell lines are treated with 100 nM of Phorbol 12-myristate 13-acetate (PMA) for 48 h to induce mature macrophage-like state. Cells are then stimulated with 100 ng/ml of LPS in the absence and presence of 500 μM of compound. After 6 hours, supernatants of treated and untreated cells are collected, and cytokine levels determined using the Human Inflammatory panel LEGENDplex Human Pro-inflammatory Chemokine Panel (Cat. No. 740118). A positive result is considered if the compound is capable of reduce or block the production of IL-1β, IL-6, and TNFα in human THP1 macrophages after LPS stimulation.
Following cells were treated with [10 ng/ml] LPS in the absence and presence 10, 100 and 500 μM of SCA-744. Cytokine levels were determined by LEGENDplex™ Human Inflammation Panel assay from BioLegend. The bar heights represent the concentration means compared to LPS alone of 3 independent experiments carried out in triplicates.
Cells were treated with 100 nM of Phorbol 12-myristate 13-acetate (PMA) for 48 h to induce mature macrophage-like state. Cells were then stimulated with 100 ng/ml of Lipopolysaccharides (LPS) in the absence and presence of 500 μM of SCA-744. After 6 hours, supernatants of treated and untreated cells were collected and the levels of three major pro-inflammatory cytokines TNF-α, IL-6 and IL-1ß were determined using the Human Inflammatory panel of LEGENDPLEX Multi-Analyte Flow assay.

## O=S(=O)(O)c1cc2c(O)c(c1)Cc1cc(S(=O)(=O)O)cc(c1O)Cc1cc(S(=O)(=O)O)cc(c1O)Cc1cc(S(=O)(=O)O)cc(c1O)C2 [SCA-744, 4-sulfocalix[4]arene]
[1]
  EC50 at 72 h: 2000 µM
[2]
  mitochondria integrity after MPP+: protects against cell death and restores mitochondria integrity; also recorded: cells maintained the integrity of mitochondria
LDL-R [3]
  level of LDL-R (immunofluorescence, semi-quantitative): significantly increased the level of LDL-R in a concentration dependent manner
LDL-R [4]
  LDL-R protein (immunoblot): induces the expression of LDLR; also recorded: the LDL-R was detected in the cell lysates
C57BL/6J mice [5]
  pathological changes in perivascular oedema and perivascular/peribronchial infiltration by neutrophils and macrophages: prevented or greatly reduced the pathological changes
C57BL/6J mice [5]; dexamethasone 5 mg/kg ip.
  semiquantitative pathology scores (oedema, granulocytes, macrophages, composite; scale 0 to 3): not statistically significantly different from untreated controls
C57BL/6J mice [6]
  respiratory function parameters (fBPM, FRC, Te, Rpef, Ti) versus control animals: significantly improved; also recorded: did not induce statistically significant alterations
[7]; 10 ng/ml LPS, 10, 100 and 500 μM, FIG. 2
  inhibition of LPS-induced TNF-α, IL-ß and IL-6: Dose-dependent inhibition
[7]; 500 μM, 100 ng/ml LPS, 6 hours, PMA-differentiated THP-1
  pro-inflammatory cytokine levels (TNF-α, IL-6, IL-1ß) in culture supernatant: significantly decreased

Source: patent US12714682B2, “Calixarene compounds and uses thereof” (UNIVERSITÄT WIEN, priority 2019, dated 2026)
